The source made the active and inactive calls. No cut-off for these calls is given here.
Tests used:
[1] = test system: HeLa; assay: Cytotoxicity against human HeLa cells assessed as inhibition of number of colonies formed in soft agar after 14 days by microscopic analysis; assay type: functional
[2] = target: Cellular tumor antigen p53 (Mus musculus) (UniProt P02340); assay: Inhibition of p53-dependent transcriptional activity in tumor promotion-sensitive mouse JB6 Cl41 cells after 12 hrs by luciferase-based method; assay type: cell-based
[3] = test system: HeLa; assay: Cytotoxicity against human HeLa cells assessed as cell viability after 48 hrs by MTS assay; assay type: functional, cell-based
[4] = test system: HeLa; assay: Ratio of IC50 to INCC50 for human HeLa cells; assay type: functional
[5] = test system: HeLa; assay: Cytotoxicity against human HeLa cells assessed as cell viability after 24 hrs by MTS assay; assay type: functional, cell-based
[6] = Cytotoxicity against tumor promotion-sensitive mouse JB6 Cl41 cells assessed as cell viability after 48 hrs by MTS assay; assay type: cell-based; settings: JB6 Cl41, 48 h
[7] = test system: HeLa; assay: Induction of p53-independent apoptosis in human HeLa cells assessed as viable cells at 10 uM after 24 hrs by Annexin-V-FITC/propidium iodide double staining based flow cytometry (reference value: 88.52 +/- 11%); assay type: functional; settings: read-out: Activity
[8] = test system: HeLa; assay: Induction of p53-independent apoptosis in human HeLa cells assessed as viable cells at 2.5 uM after 24 hrs by Annexin-V-FITC/propidium iodide double staining based flow cytometry (reference value: 88.52 +/- 11%); assay type: functional; settings: read-out: Activity
[9] = test system: HeLa; assay: Induction of p53-independent apoptosis in human HeLa cells assessed as early apoptotic cells at 10 uM after 24 hrs by Annexin-V-FITC/propidium iodide double staining based flow cytometry (reference value: 6.71 +/- 4.41%); assay type: functional
[10] = test system: HeLa; assay: Induction of p53-independent apoptosis in human HeLa cells assessed as late apoptotic/necrotic cells at 10 uM after 24 hrs by Annexin-V-FITC/propidium iodide double staining based flow cytometry (reference value: 0.88 +/- 0.72%); assay type: functional
[11] = Induction of apoptosis in tumor promotion-sensitive mouse JB6 Cl41 cells assessed as dead cells at 5 uM after 24 hrs by Annexin-V-FITC/propidium iodide staining based flow cytometry (reference value: 2.99 +/- 0.82%); assay type: cell-based; settings: jb6 cl41, 24 h
[12] = test system: HeLa; assay: Induction of p53-independent apoptosis in human HeLa cells assessed as early apoptotic cells at 2.5 uM after 24 hrs by Annexin-V-FITC/propidium iodide double staining based flow cytometry (reference value: 6.71 +/- 4.41%); assay type: functional
[13] = Induction of apoptosis in tumor promotion-sensitive mouse JB6 Cl41 cells assessed as dead cells at 10 uM after 24 hrs by Annexin-V-FITC/propidium iodide staining based flow cytometry (reference value: 2.99 +/- 0.82%); assay type: cell-based; settings: jb6 cl41, 24 h
[14] = Induction of apoptosis in tumor promotion-sensitive mouse JB6 Cl41 cells assessed as viable cells at 2.5 uM after 24 hrs by Annexin-V-FITC/propidium iodide staining based flow cytometry (reference value: 94.33 +/- 0.87%); assay type: cell-based; settings: read-out: Activity
[15] = Induction of apoptosis in tumor promotion-sensitive mouse JB6 Cl41 cells assessed as late apoptotic/necrotic cells at 5 uM after 24 hrs by Annexin-V-FITC/propidium iodide staining based flow cytometry (reference value: 0.53 +/- 0.47%); assay type: cell-based; settings: jb6 cl41, 24 h
[16] = test system: HeLa; assay: Induction of p53-independent apoptosis in human HeLa cells assessed as dead cells at 5 uM after 24 hrs by Annexin-V-FITC/propidium iodide double staining based flow cytometry (reference value: 3.89 +/- 0.3%); assay type: functional
[17] = Induction of apoptosis in tumor promotion-sensitive mouse JB6 Cl41 cells assessed as viable cells at 5 uM after 24 hrs by Annexin-V-FITC/propidium iodide staining based flow cytometry (reference value: 94.33 +/- 0.87%); assay type: cell-based; settings: read-out: Activity
[18] = test system: HeLa; assay: Induction of p53-independent apoptosis in human HeLa cells assessed as late apoptotic/necrotic cells at 5 uM after 24 hrs by Annexin-V-FITC/propidium iodide double staining based flow cytometry (reference value: 0.88 +/- 0.72%); assay type: functional
[19] = Induction of apoptosis in tumor promotion-sensitive mouse JB6 Cl41 cells assessed as late apoptotic/necrotic cells at 10 uM after 24 hrs by Annexin-V-FITC/propidium iodide staining based flow cytometry (reference value: 0.53 +/- 0.47%); assay type: cell-based; settings: jb6 cl41, 24 h
[20] = Induction of apoptosis in tumor promotion-sensitive mouse JB6 Cl41 cells assessed as viable cells at 10 uM after 24 hrs by Annexin-V-FITC/propidium iodide staining based flow cytometry (reference value: 94.33 +/- 0.87%); assay type: cell-based; settings: read-out: Activity
[21] = test system: HeLa; assay: Induction of p53-independent apoptosis in human HeLa cells assessed as dead cells at 10 uM after 24 hrs by Annexin-V-FITC/propidium iodide double staining based flow cytometry (reference value: 3.89 +/- 0.3%); assay type: functional
[22] = Induction of apoptosis in tumor promotion-sensitive mouse JB6 Cl41 cells assessed as early apoptotic cells at 2.5 uM after 24 hrs by Annexin-V-FITC/propidium iodide staining based flow cytometry (reference value: 2.15 +/- 1.18%); assay type: cell-based; settings: jb6 cl41, 24 h
[23] = test system: HeLa; assay: Induction of p53-independent apoptosis in human HeLa cells assessed as early apoptotic cells at 5 uM after 24 hrs by Annexin-V-FITC/propidium iodide double staining based flow cytometry (reference value: 6.71 +/- 4.41%); assay type: functional
[24] = Induction of apoptosis in tumor promotion-sensitive mouse JB6 Cl41 cells assessed as early apoptotic cells at 5 uM after 24 hrs by Annexin-V-FITC/propidium iodide staining based flow cytometry (reference value: 2.15 +/- 1.18%); assay type: cell-based; settings: jb6 cl41, 24 h
[25] = Induction of apoptosis in tumor promotion-sensitive mouse JB6 Cl41 cells assessed as early apoptotic cells at 10 uM after 24 hrs by Annexin-V-FITC/propidium iodide staining based flow cytometry (reference value: 2.15 +/- 1.18%); assay type: cell-based; settings: jb6 cl41, 24 h
[26] = test system: HeLa; assay: Induction of p53-independent apoptosis in human HeLa cells assessed as viable cells at 5 uM after 24 hrs by Annexin-V-FITC/propidium iodide double staining based flow cytometry (reference value: 88.52 +/- 11%); assay type: functional; settings: read-out: Activity
[27] = Induction of apoptosis in tumor promotion-sensitive mouse JB6 Cl41 cells assessed as late apoptotic/necrotic cells at 2.5 uM after 24 hrs by Annexin-V-FITC/propidium iodide staining based flow cytometry (reference value: 0.53 +/- 0.47%); assay type: cell-based; settings: jb6 cl41, 24 h
[28] = Induction of apoptosis in tumor promotion-sensitive mouse JB6 Cl41 cells assessed as dead cells at 2.5 uM after 24 hrs by Annexin-V-FITC/propidium iodide staining based flow cytometry (reference value: 2.99 +/- 0.82%); assay type: cell-based; settings: jb6 cl41, 24 h
[29] = test system: HeLa; assay: Induction of p53-independent apoptosis in human HeLa cells assessed as dead cells at 2.5 uM after 24 hrs by Annexin-V-FITC/propidium iodide double staining based flow cytometry (reference value: 3.89 +/- 0.3%); assay type: functional
[30] = test system: HeLa; assay: Induction of p53-independent apoptosis in human HeLa cells assessed as late apoptotic/necrotic cells at 2.5 uM after 24 hrs by Annexin-V-FITC/propidium iodide double staining based flow cytometry (reference value: 0.88 +/- 0.72%); assay type: functional
[31] = Induction of apoptosis in tumor promotion-sensitive mouse JB6 Cl41 cells assessed as late apoptotic/necrotic cells at 20 uM after 24 hrs by Annexin-V-FITC/propidium iodide staining based flow cytometry (reference value: 0.53 +/- 0.47%); assay type: cell-based; settings: jb6 cl41, 24 h
[32] = test system: HeLa; assay: Induction of p53-independent apoptosis in human HeLa cells assessed as late apoptotic/necrotic cells at 20 uM after 24 hrs by Annexin-V-FITC/propidium iodide double staining based flow cytometry (reference value: 0.88 +/- 0.72%); assay type: functional
[33] = test system: HeLa; assay: Induction of p53-independent apoptosis in human HeLa cells assessed as early apoptotic cells at 20 uM after 24 hrs by Annexin-V-FITC/propidium iodide double staining based flow cytometry (reference value: 6.71 +/- 4.41%); assay type: functional
[34] = test system: HeLa; assay: Induction of p53-independent apoptosis in human HeLa cells assessed as viable cells at 20 uM after 24 hrs by Annexin-V-FITC/propidium iodide double staining based flow cytometry (reference value: 88.52 +/- 11%); assay type: functional; settings: read-out: Activity
[35] = Induction of apoptosis in tumor promotion-sensitive mouse JB6 Cl41 cells assessed as viable cells at 20 uM after 24 hrs by Annexin-V-FITC/propidium iodide staining based flow cytometry (reference value: 94.33 +/- 0.87%); assay type: cell-based; settings: read-out: Activity
[36] = Induction of apoptosis in tumor promotion-sensitive mouse JB6 Cl41 cells assessed as dead cells at 20 uM after 24 hrs by Annexin-V-FITC/propidium iodide staining based flow cytometry (reference value: 2.99 +/- 0.82%); assay type: cell-based; settings: jb6 cl41, 24 h
[37] = Induction of apoptosis in tumor promotion-sensitive mouse JB6 Cl41 cells assessed as early apoptotic cells at 20 uM after 24 hrs by Annexin-V-FITC/propidium iodide staining based flow cytometry (reference value: 2.15 +/- 1.18%); assay type: cell-based; settings: jb6 cl41, 24 h
[38] = test system: HeLa; assay: Induction of p53-independent apoptosis in human HeLa cells assessed as dead cells at 20 uM after 24 hrs by Annexin-V-FITC/propidium iodide double staining based flow cytometry (reference value: 3.89 +/- 0.3%); assay type: functional

Chain of Cellular tumor antigen p53 (Mus musculus) (P02340 whole entry): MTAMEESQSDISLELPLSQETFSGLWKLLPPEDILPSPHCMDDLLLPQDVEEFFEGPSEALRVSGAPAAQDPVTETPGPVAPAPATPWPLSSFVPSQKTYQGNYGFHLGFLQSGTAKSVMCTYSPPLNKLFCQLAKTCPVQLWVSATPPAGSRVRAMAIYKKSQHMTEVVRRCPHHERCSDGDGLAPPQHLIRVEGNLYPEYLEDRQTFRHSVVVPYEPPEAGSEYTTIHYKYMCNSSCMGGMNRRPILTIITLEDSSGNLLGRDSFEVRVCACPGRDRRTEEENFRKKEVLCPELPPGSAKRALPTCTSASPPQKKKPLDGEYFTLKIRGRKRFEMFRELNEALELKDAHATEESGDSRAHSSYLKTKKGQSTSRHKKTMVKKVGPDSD

Structure (SMILES) | INCC50 [1] [µM] | inhibition [2] | IC50 [3] [µM] | Ratio [4] | IC50 [5] [µM] | IC50 [6] [µM] | viability at 10 µM [7] [%] | viability at 2.5 µM [8] [%] | Activity [9] [%] | Activity [10] [%] | Activity [11] [%] | Activity [12] [%] | Activity [13] [%] | viability at 24 h, 2.5 µM [14] [%] | Activity [15] [%] | Activity [16] [%] | viability at 24 h, 5 µM [17] [%] | Activity [18] [%] | Activity [19] [%] | viability at 24 h, 10 µM [20] [%] | also measured
O=C1C=CC(=O)c2c(O)cccc21 [JUGLONE] | 39.04 | Active | 65.5 | 1.67 | 68.5 | 34.3 |  |  |  |  |  |  |  |  |  |  |  |  |  |  | 
COC1=CC(=O)c2c(O)ccc(O)c2C1=O | 0.73 | Active | 2.16 | 2.97 | 1.8 | 2.49 |  |  |  |  |  |  |  |  |  |  |  |  |  |  | 
CO[C@H]1O[C@H](COC2=CC(=O)c3c(O)cccc3C2=O)[C@@H](O)[C@H](O)[C@H]1O | 1.68 | Active | 5.22 | 3.11 | 5.2 | 6.54 | 20.1 | 84.7 | 32.33 | 26.07 | 3.36 | 10.42 | 1.76 | 94.3 | 1.93 | 2.73 | 79.4 | 1.38 | 2.01 | 13.3 | Activity [21]: 21.48%; Activity [22]: 2.77%; Activity [23]: 13.09%; Activity [24]: 15.33%; Activity [25]: 82.93%; viability at 5 µM [26]: 82.8%; Activity [27]: 0.62%; Activity [28]: 2.35%; Activity [29]: 3.47%; Activity [30]: 1.44%
O=C1C=C(O)c2cccc(O)c2C1=O | 35.51 | Active | 118 | 3.33 | 124 | 193 |  |  |  |  |  |  |  |  |  |  |  |  |  |  | 
CO[C@H]1O[C@H](COC2=CC(=O)c3c(O)ccc(O)c3C2=O)[C@@H](O)[C@H](O)[C@H]1O | 4.03 | Active | 7.89 | 1.96 | 7.54 | 8.47 | 87.5 | 87.4 | 7.99 | 1.74 | 0.4 | 8.28 | 3.17 | 91.7 | 2.96 | 2.67 | 88.8 | 1.35 | 1.91 | 87.5 | Activity [31]: 13.91%; Activity [32]: 24.44%; Activity [33]: 14.06%; Activity [21]: 2.77%; viability at 20 µM [34]: 30.1%; viability at 24 h, 20 µM [35]: 13.4%; Activity [22]: 1.84%; Activity [36]: 31.75%; Activity [23]: 6.44%; Activity [24]: 1.8%; Activity [25]: 7.41%; Activity [37]: 40.96%; viability at 5 µM [26]: 89.5%; Activity [27]: 2.46%; Activity [28]: 2.99%; Activity [38]: 31.42%; Activity [29]: 2.8%; Activity [30]: 1.55%
O=C1C=C(O)c2c(O)cccc2C1=O | 109.37 | Active | 187 | 1.71 | 196 | > 200 |  |  |  |  |  |  |  |  |  |  |  |  |  |  | 

From ChEMBL document CHEMBL3232964, “Quinone-carbohydrate nonglucoside conjugates as a new type of cytotoxic agents: synthesis and determination of in vitro activity” (Eur J Med Chem, 2014)
